Assay results reported in patent US20260242391A1 (priority 2023, published 2026).
Where two headings read alike, the source gives them in different places. Values belong to the compound of their own block, whether it stands above or below them.

How the values were obtained:
MDS-L cells [1] = details: for Induction of differentiation of MDS-L cells (GlyA positivity), in words: anti-GlyA immunopositivity; for EC50: read-out: MDS-L GlyA induction EC50
Experimental: MDS-L differentiation assay.
(§1) MDS-L were cultured in RPMI (17-105-CV, Corning) without phenol red and supplemented with 2 mM glutamine and 10% FBS. Cells first expanded in IL-3 until 70% confluence then pre-conditioned for 14 days with IL-3 (200-03, PeproTech), GCSF (300-23, PeproTech), and EPO (287-TC, R&D Systems) to promote erythroid and myeloid differentiation. A density of 10,000 cells per well were used in phenotypic assays. MDSL cells were spun and treatment media was replaced with media containing APC Anti-CD235a (GlyA) (551336, BD Biosciences) (1.25 μL per 50 L test) and incubated for 1 hour at 4° C. Cells were washed then counter stained with SYTOX-Green 1 M per 100 L prior to flow cytometry analysis. Dose response and pharmacological assays were analyzed using a ZE5 Cell Analyzer (BioRad) equipped with Everest software. Single, live, cells were analyzed for GlyA expression using FlowJo v10.7.2 software.

MDS-L cells [2] = experiment: cells; details: read-out: MDS-L GlyA induction EC50
Experimental: MDS-L differentiation assay.
as §1

HL-60 [3] = test system: HL-60
HL-60 [4] = experiment: HL-60 differentiation potency; type: cell-based; details: Homo sapiens
HL-60 [5] = test system: HL-60; remark: listed apart in the source
HL-60 [6] = experiment: HL-60 differentiation potency; type: cell-based; details: Homo sapiens; remark: listed apart in the source
in vitro = details: human
[7] = MDS-L cells, anti-CD235a (GlyA) flow cytometry

EC50 (MDS-L cells [2]): 30 nM | Maximal MDS-L GlyA fold induction (MDS-L cells [1]; human): 7.26 fold
Compound: C[C@H]1[C@@H](OCc2ccc(C(=O)O)cc2)O[C@@H]2O[C@@]3(C)CC[C@H]4[C@H](C)CC[C@@H]1[C@@]24OO3 [Artelinic acid (artelinate), artelinate]

IC50 (HL-60 [3]): 20000 nM | EC50 (HL-60 [4]): 131 nM
Compound: C[C@H]1[C@@H](Oc2cc(F)c(CC(=O)O)c(F)c2)O[C@@H]2O[C@@]3(C)CC[C@H]4[C@H](C)CC[C@@H]1[C@@]24OO3 [Compound 22, 2-(2,6-difluoro-4-(((3R,5aS,6R, 8aS,9R,10S,12R, 12aR)-3,6,9-trimethyldeca-hydro-12H-3,12-epoxy[1,2]dioxepino[4,3-i]isochromen-10-yl)oxy)phenyl) acetic acid]

IC50 (HL-60 [5]): 20000 nM | EC50 (HL-60 [6]): 203 nM
Compound: C[C@H]1[C@H](OC2CCc3cc(C(=O)O)ccc32)O[C@@H]2O[C@@]3(C)CC[C@H]4[C@H](C)CC[C@@H]1[C@@]24OO3 (stereo partly drawn) [Compound 225, 1-(((3R,5aS,6R,8aS, 9R,10R,12R, 12aR)-3,6,9-trimethyldeca-hydro-12H-3,12-epoxy[1,2]dioxepino[4,3-i]isochromen-10-yl)oxy)-2,3-dihydro-1H-indene-5-carboxylic acid]

IC50 (HL-60 [5]): 20000 nM | EC50 (HL-60 [6]): 156 nM
Compound: C[C@H]1[C@@H](OC[C@H]2CC[C@@H](C(=O)N[C@H]3CC[C@@H](C(=O)O)C3)CC2)O[C@@H]2O[C@@]3(C)CC[C@H]4[C@H](C)CC[C@@H]1[C@@]24OO3 [Compound 267, (1R,3S)-3-((1R,4R)-4-((((3R,5aS,6R,8aS, 9R,10S,12R, 12aR)-3,6,9-trimethyldeca-hydro-12H-3,12-epoxy[1,2]dioxepino[4,3-i]isochromen-10-yl)oxy)methyl)cyclohexane-1-carboxamido) cyclopentane-1-carboxylic acid]

IC50 (in vitro): 4990 nM | EC50 (HL-60 [6]): 108 nM
Compound: C[C@H]1[C@@H](Oc2ccc(CC(=O)N[C@@H]3C[C@H](C(=O)O)C[C@H]3O)cc2)O[C@@H]2O[C@@]3(C)CC[C@H]4[C@H](C)CC[C@@H]1[C@@]24OO3 [Compound 299, (1S,3R,4R)-3-hydroxy-4-(2-(4-(((3R,5aS,6R,8aS, 9R,10S,12R, 12aR)-3,6,9-trimethyldeca-hydro-12H-3,12-epoxy[1,2]dioxepino[4,3-i]isochromen-10-yl)oxy)phenyl)acetamido) cyclopentane-1-carboxylic acid]

IC50 (in vitro): > 20000 nM | EC50 (HL-60 [6]): 63.5 nM
Compound: C[C@H]1[C@@H](Oc2ccc(CC(=O)N[C@H](C(=O)O)C3CC3)cc2)O[C@@H]2O[C@@]3(C)CC[C@H]4[C@H](C)CC[C@@H]1[C@@]24OO3 [Compound 301, (S)-2-cyclopropyl-2-(2-(4-(((3R,5aS,6R,8aS, 9R,10S,12R, 12aR)-3,6,9-trimethyldeca-hydro-12H-3,12-epoxy[1,2]dioxepino[4,3-i]isochromen-10-yl)oxy)phenyl)acetamido) acetic acid]

IC50 (HL-60 [5]): 20000 nM | EC50 (HL-60 [6]): 16.2 nM
Compound: CC(C)[C@H](NC(=O)Cc1ccc(O[C@H]2O[C@@H]3O[C@@]4(C)CC[C@H]5[C@H](C)CC[C@@H]([C@H]2C)[C@@]35OO4)cc1)C(=O)O [Compound 302, (2-(4-(((3R,5aS,6R,8aS, 9R,10S,12R, 12aR)-3,6,9-trimethyldeca-hydro-12H-3,12-epoxy[1,2]dioxepino[4,3-i]isochromen-10-yl)oxy)phenyl)acetyl)-L-valine]

IC50 (in vitro): > 20000 nM | EC50 (HL-60 [6]): 46.4 nM
Compound: C[C@H]1[C@@H](Oc2ccc(CC(=O)NC34CC(C(=O)O)(C3)C4)cc2)O[C@@H]2O[C@@]3(C)CC[C@H]4[C@H](C)CC[C@@H]1[C@@]24OO3 [Compound 303, 3-(2-(4-(((3R,5aS,6R,8aS, 9R,10S,12R, 12aR)-3,6,9-trimethyldeca-hydro-12H-3,12-epoxy[1,2]dioxepino[4,3-i]isochromen-10-yl)oxy)phenyl)acetamido) bicyclo[1.1.1] pentane-1-carboxylic acid]

EC50 (MDS-L cells [2]): 610 nM | Maximal MDS-L GlyA fold induction (MDS-L cells [1]; human): 7.09 fold
Compound: C[C@H]1[C@@H](O)O[C@@H]2O[C@@]3(C)CC[C@H]4[C@H](C)CC[C@@H]1[C@@]24OO3 [Dihydroartemisin, dihydro- artemisinin]

More lines, now with the values behind:

Compound: C[C@@H]1CC[C@H]2[C@@H](C)C(=O)O[C@@H]3O[C@@]4(C)CC[C@@H]1[C@]32O4 [2-deoxy-artemisinin]
Induction of differentiation of MDS-L cells (GlyA positivity), in words (MDS-L cells [1]; MDS-L cells): inactive

Compound: CC1=C(/C=C/C(C)=C/C=C/C(C)=C/C(=O)O)C(C)(C)CCC1 [ATRA, retinoic acid]
Cytotoxicity as readout by live dead cell gating (MDS-L cells [1]; MDS-L cells): minimal cytotoxicity

Compound: C[C@H]1[C@H](OC(=O)CCC(=O)O)O[C@@H]2O[C@@]3(C)CC[C@H]4[C@H](C)CC[C@@H]1[C@@]24OO3 [Artesunate, artesunate]
EC50 (MDS-L cells [2]): 850 nM | Maximal MDS-L GlyA fold induction (MDS-L cells [1]; human): 7.51 fold

Compound: Cc1c(-c2ccc(-c3ccccc3F)cc2)nc2ccc(F)cc2c1C(=O)O [Brequinar]
Induction of differentiation of MDS-L cells (GlyA positivity), in words (MDS-L cells [1]; MDS-L cells): efficacious at inducing differentiation

Compound: C[C@H]1[C@H](Oc2cc(F)c(CC(=O)O)c(F)c2)O[C@@H]2O[C@@]3(C)CC[C@H]4[C@H](C)CC[C@@H]1[C@@]24OO3 [Compound 14, 2-(2,6-difluoro-4-(((3R,5aS,6R, 8aS,9R,10R,12R, 12aR)-3,6,9-trimethyldeca-hydro-12H-3,12-epoxy[1,2]dioxepino[4,3-i]isochromen-10-yl)oxy)phenyl) acetic acid]
IC50 (HL-60 [3]): 20000 nM | EC50 (HL-60 [4]): 90.9 nM

Compound: C[C@H]1[C@@H](Oc2ccc(C(=O)C(=O)O)cc2)O[C@@H]2O[C@@]3(C)CC[C@H]4[C@H](C)CC[C@@H]1[C@@]24OO3 [Compound 128, 2-oxo-2-(4-(((3R,5aS,6R,8aS, 9R,10S,12R, 12aR)-3,6,9-trimethyldeca-hydro-12H-3,12-epoxy[1,2]dioxepino[4,3-i]isochromen-10-yl)oxy)phenyl) acetic acid]
IC50 (HL-60 [3]): 20000 nM | EC50 (HL-60 [4]): 1220 nM

Compound: C[C@H]1[C@@H](Oc2ccc(CC(=O)NC34CCC(C(=O)O)(C3)C4)cc2)O[C@@H]2O[C@@]3(C)CC[C@H]4[C@H](C)CC[C@@H]1[C@@]24OO3 [Compound 300, 4-(2-(4-(((3R,5aS,6R,8aS, 9R,10S,12R, 12aR)-3,6,9-trimethyldeca-hydro-12H-3,12-epoxy[1,2]dioxepino[4,3-i]isochromen-10-yl)oxy)phenyl)acetamido) bicyclo[2.1.1] hexane-1-carboxylic acid]
IC50 (in vitro): 19500 nM | EC50 (HL-60 [6]): 17 nM

Compound: C[C@H]1[C@@H](OCc2ccc(-c3nnc(CC(=O)O)o3)cc2)O[C@@H]2O[C@@]3(C)CC[C@H]4[C@H](C)CC[C@@H]1[C@@]24OO3 [Compound 304, 2-(5-(4-((((3R,5aS,6R,8aS, 9R,10S,12R, 12aR)-3,6,9-trimethyldeca-hydro-12H-3,12-epoxy[1,2]dioxepino[4,3-i]isochromen-10-yl)oxy)methyl)phenyl)-1,3,4-oxadiazol-2-yl)acetic acid]
IC50 (in vitro): 30 nM | EC50 (HL-60 [6]): 11.2 nM

Compound: CC(C(=O)N[C@H]1CC[C@@H](C(=O)O)C1)c1ccc(O[C@H]2O[C@@H]3O[C@@]4(C)CC[C@H]5[C@H](C)CC[C@@H]([C@H]2C)[C@@]35OO4)c(F)c1 (stereo partly drawn) [Compound 306, (1R,3S)-3-(2-(3-fluoro-4-(((3R,5aS,6R,8aS, 9R,10S,12R, 12aR)-3,6,9-trimethyldeca-hydro-12H-3,12-epoxy[1,2]dioxepino[4,3-i]isochromen-10-yl)oxy)phenyl)propanamido) cyclopentane-1-carboxylic acid]
IC50 (in vitro): 690 nM | EC50 (HL-60 [6]): 13.3 nM

Compound: C[C@H]1[C@@H](Oc2ccc(CC(=O)N[C@H]3CC[C@H](C(=O)O)C3)cc2)O[C@@H]2O[C@@]3(C)CC[C@H]4[C@H](C)CC[C@@H]1[C@@]24OO3 [Compound 307, (1S,3S)-3-(2-(4-(((3R,5aS,6R,8aS, 9R,10S,12R, 12aR)-3,6,9-trimethyldeca-hydro-12H-3,12-epoxy[1,2]dioxepino[4,3-i]isochromen-10-yl)oxy)phenyl)acetamido) cyclopentane-1-carboxylic acid]
IC50 (in vitro): 11700 nM | EC50 (HL-60 [6]): 25.9 nM

Compound: C[C@H]1[C@@H](Oc2ccc(CC(=O)N[C@H]3CC[C@@H](C(=O)O)CC3)cc2)O[C@@H]2O[C@@]3(C)CC[C@H]4[C@H](C)CC[C@@H]1[C@@]24OO3 [Compound 308, (1R,4s)-4-(2-(4-(((3R,5aS,6R,8aS, 9R,10S,12R, 12aR)-3,6,9-trimethyldeca-hydro-12H-3,12-epoxy[1,2]dioxepino[4,3-i]isochromen-10-yl)oxy)phenyl)acetamido) cyclohexane-1-carboxylic acid]
IC50 (in vitro; HL-60 cells): > 20000 nM | EC50 (HL-60 [6]): 12.1 nM

Compound: C[C@H]1[C@@H](OCc2c(F)cc(C(=O)N[C@H]3CC[C@@H](C(=O)O)C3)cc2F)O[C@@H]2O[C@@]3(C)CC[C@H]4[C@H](C)CC[C@@H]1[C@@]24OO3 [Compound 309, (1R,3S)-3-(3,5-difluoro-4-((((3R,5aS,6R,8aS, 9R,10S,12R, 12aR)-3,6,9-trimethyldeca-hydro-12H-3,12-epoxy[1,2]dioxepino[4,3-i]isochromen-10-yl)oxy)methyl)benzamido) cyclopentane-1-carboxylic acid]
IC50 (in vitro): 1740 nM | EC50 (HL-60 [6]): 31.3 nM

Compound: CCCCCCCCCCCCCC(=O)O[C@@H]1[C@@H](C)[C@@]2(O)[C@@H](C=C(CO)C[C@]3(O)C(=O)C(C)=C[C@@H]23)[C@@H]2C(C)(C)[C@]12OC(C)=O [phorbol 12-myristate 13-acetate (PMA), phorbol 12-myristate 13-acetate]
Induction of differentiation of MDS-L cells (GlyA positivity), in words (MDS-L cells [1]; MDS-L cells): efficacious at inducing differentiation

Compound: Artefenomel [Artefenomel (OZ-439)]
Maximal MDS-L GlyA fold induction (MDS-L cells [1]; [7]): 3.71 fold | EC50 (MDS-L cells [1]; [7]): 5650 nM

Compound: Arterolane [Arterolane (OZ-277)]
Maximal MDS-L GlyA fold induction (MDS-L cells [1]; [7]): 7.02 fold | EC50 (MDS-L cells [1]; [7]): 1740 nM
